Experimental data published in US9394295B2, “Antibacterial homopiperidinyl substituted 3,4-dihydro-1H-[1,8]naphthyridinones” (Janssen Sciences Ireland UC, priority 2011, dated 2016).
Converted amounts (≈) assume the structure as drawn. Where two headings read alike, the source gives them in different places.

Key:
[1] = Cytotoxicity MTT assay (TOX HELAM); format: cell-based; details: human, HelaM cells, read-out: TOX HELAM (222.125) CC50
Procedure: Cytotoxicity of the compounds was evaluated using the MTT assay. Human HelaM cells grown in 96-well plates were exposed to serial dilutions of the tested compounds (final volume of 0.2 ml) and incubated for 72 hours at 37° C. and 5% CO2. Inhibitors are typically varied over the range of 25 to 0.8 μM. The final DMSO concentration in the assay is 0.5%. MTT (3-(4,5-Dimethylthiazol-2-yl)-2,5-diphenyltetrazolium bromide, a tetrazole) was added and reduced to purple formazan only in living cells. Solubilization of the formazan crystals was achieved by adding 100 μl 2-propanol. Cell viability was determined by measuring the absorbance of the reduced formazan, giving a purple color, at 540 nm and 690 nm. The absorbance measured at 690 nm was automatically subtracted from the absorbance at 540 nm, to eliminate the effects of non-specific absorption. The percent cytotoxicity achieved by the compounds was calculated according to standard methods. Cytotoxicity is reported as CC50, the concentration that causes a 50% reduction in cell viability.
The results are depicted in the table D2 below (TOX HELAM).

[2] = Thermodynamic solubility / solubility in aqueous solution; format: physicochemical; details: thermodynamic from solid, 4 days at ambient temperature
Procedure: The pH solubility profiling was carried out at ambient temperature for a period of 4 days. A saturation solubility study was carried out in order to determine maximum solubility in a particular buffer solution. The compound was added to respective buffer solution until saturation point is reached. This was followed by shaking the flask for 4 days at ambient temperature. After 4 days, the solutions were filtered and injected on UPLC and the concentration was determined using a generic HPLC method.

E. coli tolC mutant = experiment: MIC broth microdilution (CLSI), E. coli tolC mutant; format: cell-based; details: Escherichia coli
Procedure: (§1) Minimum Inhibitory Concentrations (MICs) were determined in accordance with the Clinical and Laboratory Standards Institute (CLSI) methodology against aerobic bacteria (CLSI M07-A8) (see Clinical and Laboratory Standards Institute. 2009. Methods for dilution antimicrobial susceptibility tests for bacteria that grow aerobically. CLSI document M07-A8, Vol. 29, No. 2.) by the broth microdilution method with cation-adjusted Mueller-Hinton broth (CA-MHB) medium for the majority of organisms, except for Haemophilus influenza, where Haemophilis test medium (HTM) broth was used. Descriptions of the individual organisms can be found in the table. Where possible, ATCC standard strains were tested.
(§2) The inoculum density for the susceptibility testing was standardized to give a final inoculum of approximately 5×10^5 CFU/mL.
(§3) Stock solutions of the compounds were prepared in DMSO at concentrations of 1 mg/mL. Linezolid was prepared in DMSO at a concentration of 2 mg/mL. Stock solutions of all compounds were diluted into CA-MHB to give a range of two-fold dilutions, depending upon the sensitivity of the organism being tested.

S. aureus NRS119 = experiment: MIC broth microdilution (CLSI), S. aureus NRS119; format: cell-based; details: Staphylococcus aureus, LZD-R
Procedure: as §1, §2, §3

S. aureus NRS121 = experiment: MIC broth microdilution (CLSI), S. aureus NRS121; format: cell-based; details: Staphylococcus aureus, LZD-R
Procedure: as §1, §2, §3

S. aureus ATCC 29213 = experiment: MIC broth microdilution (CLSI), S. aureus ATCC 29213; format: cell-based; details: Staphylococcus aureus, ATCC 29213 / MSSA, reference strain MSSA
Procedure: as §1, §2, §3

[3] = test system: Staphylococcus aureus ATCC 29213; experiment: Antibacterial susceptibility testing: IC90 determination (STA); format: cell-based; details: ATCC29213, S. aureus ATCC 29213, 90% inhibitory concentration for bacterial growth, read-out: STA (361.159) IC90
Procedure: The following bacteria were used: Staphylococcus aureus ATCC 29213, methicillin-resistant Staphylococcus aureus (MRSA) ATCC 700788 and Escherichia coli ATCC 35218. The bacteria used in this study were grown overnight in flasks containing 100 ml Mueller-Hinton broth (Difco cat. nr. 0757-17) in sterile de-ionized water, with shaking, at 37° C. Stocks were store at −70° C. until use.
Bacteria were incubated on a tryptic soy agar plate containing 5% sheep blood (Becton Dickinson cat. nr. 254053) for 18-24 hours at 35° C. in aerobic conditions (first passage). For the second passage, fresh Mueller-Hinton broth is inoculated with 5-10 colonies and grown overnight at 35° C. until turbidity (reaching log-phase) in aerobic conditions is reached. The bacterial suspension is then adjusted to 0.5 McFarland density and further diluted 1:100 in Mueller Hinton broth medium. This is used as inoculum.
MIC assays were performed by the broth microdilution method in a 96-well format (flat-bottom microtitre plates) with a final volume of 0.1 ml Mueller Hinton broth containing two-fold serial dilutions of compounds and inoculated with 5×10^5 CFU/ml of bacteria (standard inoculum size according to CLSI guidelines). Inhibitors are typically varied over the range of 63 to 0.49 μM. The final DMSO concentration in the assay was 1.25% (maximum tolerable DMSO concentration=6%). In the assays where the effect of human serum on the activity of the compounds against S. aureus was tested, human serum was added at a final concentration of 10%. The plates were incubated at 35° C. for 16-20 hours. At the end of incubation the bacterial growth was quantified fluorometrically. For this, resazurin was added to all wells and the plates were re-incubated. The incubation time is dependent on the type of bacteria. A change in color from blue to pink indicated the growth of bacteria. The fluorescence was read in computer-controlled fluorometer (Fluoroskan Ascent FL, Labsystems) at an excitation wavelength 540 nm and an emission wavelength of 590 nm. The % growth inhibition achieved by the compounds was calculated according to standard methods. The IC90 (expressed in μg/ml) was defined as the 90% inhibitory concentration for bacterial growth. A panel of reference compounds were simultaneously tested for QC approval.

S. aureus NRS120 = experiment: MIC broth microdilution (CLSI), S. aureus NRS120; format: cell-based; details: Staphylococcus aureus, LZD-R
Procedure: as §1, §2, §3

E. coli ATCC 25922 = experiment: MIC broth microdilution (CLSI), E. coli ATCC 25922; format: cell-based; details: Escherichia coli, ATCC25922
Procedure: as §1, §2, §3

S. aureus ATCC 43300 = experiment: MIC broth microdilution (CLSI), S. aureus ATCC 43300; format: cell-based; details: Staphylococcus aureus, ATCC 43300 / MRSA, reference strain MRSA
Procedure: as §1, §2, §3

[4] = aqueous buffer, Buffer pH 2, read-out: Solubility, Buffer pH 2
[5] = aqueous buffer, Buffer pH 4, read-out: Solubility, Buffer pH 4
[6] = aqueous buffer, Buffer pH 7.4, read-out: Solubility, Buffer pH 7.4
[7] = aqueous with cosolvent or surfactant or cyclodextrin, 10% HP-β-CD buffer pH 4, read-out: Solubility, 10% HP-β-CD buffer pH 4
[8] = aqueous with cosolvent or surfactant or cyclodextrin, 10% HP-β-CD buffer pH 7.4, read-out: Solubility, 10% HP-β-CD buffer pH 7.4
[9] = aqueous with cosolvent or surfactant or cyclodextrin, 20% HP-β-CD buffer pH 4, read-out: Solubility, 20% HP-β-CD buffer pH 4
[10] = aqueous with cosolvent or surfactant or cyclodextrin, 20% HP-β-CD buffer pH 7.4, read-out: Solubility, 20% HP-β-CD buffer pH 7.4

O=C1CCc2cc(/C=C/C(=O)N3CCC=C(c4ccccc4)CC3)cnc2N1 [Co. No. 2]
CC50 at 72 h [1]: > 9.38 µg/mL
solubility at 4 days [2, 4]: 2 µg/mL (≈ 5.36 µM)
solubility at 4 days [2, 5]: < 2 µg/mL
solubility at 4 days [2, 6]: 3 µg/mL (≈ 8.03 µM)
solubility at 4 days [2, 7]: 1150 µg/mL (≈ 3080 µM)
solubility at 4 days [2, 8]: 1080 µg/mL (≈ 2900 µM)
solubility at 4 days [2, 9]: 980 µg/mL (≈ 2620 µM)
solubility at 4 days [2, 10]: 1050 µg/mL (≈ 2820 µM)
MIC90 (E. coli tolC mutant): 0.25 µg/mL (≈ 0.669 µM)
MIC90 (S. aureus NRS119): 0.125 µg/mL (≈ 0.335 µM)
MIC90 (S. aureus NRS121): 0.125 µg/mL (≈ 0.335 µM)
MIC90 (S. aureus ATCC 29213): 0.06 µg/mL (≈ 0.161 µM)
IC90 [3]: 0.14 µg/mL (≈ 0.375 µM)
MIC90 (S. aureus NRS120): 0.06 µg/mL (≈ 0.161 µM)
MIC90 (E. coli ATCC 25922): > 32 µg/mL
MIC90 (S. aureus ATCC 43300): 0.06 µg/mL (≈ 0.161 µM)

COc1ccc(F)cc1C1=CCCN(C(=O)/C=C/c2cnc3c(c2)CCC(=O)N3)CC1 [Co. No. 27]
CC50 at 72 h [1]: > 10.6 µg/mL
solubility at 4 days [2, 4]: < 10 µg/mL
solubility at 4 days [2, 5]: < 10 µg/mL
solubility at 4 days [2, 6]: < 10 µg/mL
solubility at 4 days [2, 7]: 220 µg/mL (≈ 522 µM)
solubility at 4 days [2, 8]: 250 µg/mL (≈ 593 µM)
solubility at 4 days [2, 9]: 440 µg/mL (≈ 1040 µM)
solubility at 4 days [2, 10]: 590 µg/mL (≈ 1400 µM)
MIC90 (E. coli tolC mutant): > 8 µg/mL
MIC90 (S. aureus NRS119): 0.06 µg/mL (≈ 0.142 µM)
MIC90 (S. aureus NRS121): 0.06 µg/mL (≈ 0.142 µM)
MIC90 (S. aureus ATCC 29213): 0.06 µg/mL (≈ 0.142 µM)
IC90 [3]: 0.1 µg/mL (≈ 0.237 µM)
MIC90 (S. aureus NRS120): 0.125 µg/mL (≈ 0.297 µM)
MIC90 (E. coli ATCC 25922): > 8 µg/mL
MIC90 (S. aureus ATCC 43300): 0.06 µg/mL (≈ 0.142 µM)
